Source: PubChem BioAssay AID248 (DTP/NCI, 2004)
Several values for one entry are separate records, joined by “and”; a condition that tells them apart may be missing. Equal values may be shown once. Inconclusive results and toxic doses are left out. Cut-off read from the data, not from the text of the source: active = T/C of 150% or more; inactive = T/C below 125%.

Test system: L1210 leukemia ip in BDF1 mice, survival T/C
Experiment: NCI In Vivo Anticancer Drug Screen. Data for tumor model L1210 Leukemia (intraperitoneal) in B6D2F1 (BDF1) mice
Settings: endpoint: mean survival time, higher = longer survival
Summary of the method: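 Transplanted-tumor mice were given test agent; controls received vehicle only. Survival readings from the two groups were divided (treated over control).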

[1] = dose: 100.0 mg/kg/injection, schedule: Q04DX003 (ip), vehicle: Klucel (hydroxypropylcellulose) (HPC)
[2] = dose: 200.0 mg/kg/injection, schedule: Q04DX003 (ip), vehicle: Klucel (hydroxypropylcellulose) (HPC)

Measured: T/C

CCOC(=O)C1C(=O)N(O)c2cnccc21 (configuration not stated)
inactive: dose: 100.0 mg/kg/injection, schedule: Q01DX001 (ip), vehicle: saline 107 % of control | dose: 200.0 mg/kg/injection, schedule: Q01DX001 (ip), vehicle: saline 107 % of control | dose: 400.0 mg/kg/injection, schedule: Q01DX001 (ip), vehicle: saline 88 % of control

O=c1c(O)c(-c2ccc(O)c(O)c2)oc2cc(O)cc(O)c12
inactive: dose: 25.0 mg/kg/injection, schedule: Q01DX009 (ip), vehicle: saline 115 % of control | dose: 50.0 mg/kg/injection, schedule: Q01DX009 (ip), vehicle: saline 105 % of control | dose: 100.0 mg/kg/injection, schedule: Q01DX009 (ip), vehicle: saline 103 % of control | dose: 200.0 mg/kg/injection, schedule: Q01DX009 (ip), vehicle: saline 104 % of control and 120 % of control

Clc1ccccc1C=C1c2ccccc2-c2ccccc21
inactive: [1] 103 % of control | [2] 100 % of control | dose: 400.0 mg/kg/injection, schedule: Q04DX003 (ip), vehicle: Klucel (hydroxypropylcellulose) (HPC) 96 % of control

CSc1ccc([N+](=O)[O-])cc1
inactive: [1] 104 % of control | [2] 100 % of control
